Results from patent publication US20240199693A1, “HE[…] FOR USE IN THE TREATMENT OF HMGB1-DEPENDENT DISEASES” (priority 2021, published 2024).
Square brackets hold non-standard residues; d marks the D form. Ends that are not written are not given here.

Legend:
Assay type in all cases: in vivo
HMGB1 [1] = assay: Mouse model of acute lung injury induced by intratracheal LPS; HMGB1 in bronchoalveolar fluid by ELISA; settings: C57Bl/6 male mice, BALF after 48 hours, mean±SEM (n=6)
Method: This example illustrates efficacy of compounds of the invention in the inhibition of HMGB1 secretion.
Compounds of the invention were tested in a mouse model of acute lung injury induced by intratracheal administration of lipopolysaccharide (LPS) as described, for instance, in D'Alessio F R. Mouse Models of Acute Lung Injury and ARDS. Methods Mol Biol. 2018, 1809:341-350. C57BI/6 male mice were randomized into eight groups of 6 animals each. Mice were treated intratracheally with 1 μg/mouse of α-Galactosyl Ceramide (α-GalCer, KRN7000, Sigma-Aldrich) and after 24 hours with LPS (E. coli; 1 mg/mouse) and 10 μL/mouse Freund's complete adjuvant. Then, mice received by inhalation 50 μL saline (control); 10, 100, or 250 μg/kg of H-Tyr-D-Ala-Gly-Phe-Leu-Arg-Arg-NH2; 100 μg/kg of H-Tyr-D-Ala-Gly-Phe-Leu-Arg-Arg-NHC2H5; 100 μg/kg of H-Tyr-D-Ala-Gly-Phe-Leu-Arg-Arg-NHC4H9; 100 μg/kg of H-Tyr-D-Ala-Gly-Phe-Leu-Arg-Arg-N(CH3)2; 10 μg/kg H-Tyr-D-Ala-Gly-Phe-Leu-Arg-Arg-OH (Chavkin C et al. 1981); or 250 μg/kg of [D-Ala^2, D-Leu^5]-enkephalin as solutions in 50 μL. saline. After 48 hours, HMGB1 concentrations were measured in bronchoalveolar fluid (BALF) with commercially available ELISA kit for HMGB1 (SEA3999Mu, Cloud-Clone corp.). Results are presented in Tables 1 as mean±SEM (n=6) of HMGB1 levels in BALF, in % of control.

HMGB1 [2] = assay: Mouse model of rheumatoid arthritis (type II collagen-induced); serum HMGB1 by ELISA and arthritis incidence; settings: BALB/c male mice
Method: (§1) This example illustrates that compound (I) is useful for treating arthritis, the HMGB1-dependent disease.
An efficacy of the compound of the invention was tested in a mouse model of rheumatoid arthritis, as described in Brand et al., Nat Protoc. 2007, 2(5):1269-75. Male BALB/c mice were randomized into two groups of 5 animals each. Arthritis was induced in using an intradermal injection of cold emulsion (0.05 ml) prepared by emulsifying chicken type II collagen (CII) solution in acetic acid with complete Freund's adjuvant (CFA) into the base of the tail. Three weeks later, the mice were administered by a second injection in the same manner. Following the booster immunization, mice received 50 μL saline i.p. (control) or 100 μg/kg H-Tyr-D-Ala-Gly-Phe-Leu-Arg-Arg-NH2 in 50 μL saline i.p., once-a-day, for two weeks. The serum level of HMGB1 was determined on day 35 with commercially available ELISA kit for HMGB1 (SEA3999Mu, Cloud-Clone corp.). The clinical severity of arthritis in each paw was quantified according to a graded scale from 0 to 4, as described in Brand et al., Nat Protoc. 2007, 2(5):1269-75. Results are presented in Table 2 as and mean±SEM (n=5) of HMGB1 levels in serum in % of control and arthritis incidence.

HMGB1 [3] = assay: Mouse model of antigen-induced arthritis (mBSA); knee swelling and HMGB1 in synovial lavage fluid by ELISA; settings: C3H/He male mice, 0.14 mg/kg s.c. once-a-day for 5 days, 25th day, mean±SEM (n=6)
Method: as §1
An efficacy of H-Tyr-D-Ala-Gly-Phe-Leu-Arg-Arg-NH2 acetate was tested in a mouse model of antigen-induced arthritis induced by methylated bovine serum albumin (mBSA), as described in Brackertz et al., Arthritis Rheum. 1977, 20(3):841-50; Staite et al., Agents and Actions 1989, 27(3/4):338-40. Briefly, male C3H/He mice 8-10 weeks of age were randomized into two groups of 6 animals each. Immunization: the mice were immunized 2 times (on the 0th and 7th days) with s.c. injections of mBSA (50 mg/kg, Sigma-Aldrich) emulsified in 20 μL Freund's complete adjuvant and on the 21st day received intra-articular injection of mBSA (50 mg/kg) in 20 μL saline in the right hind knee as a booster immunization. […] Treatment: the mice received s.c. injections either 0.1 ml saline (control, n=6) or 0.14 mg/kg H-Tyr-D-Ala-Gly-Phe-Leu-Arg-Arg-NH2 acetate in 0.1 ml saline (n=6), once-a-day for 5 consecutive days, beginning 30 min after the booster immunization. The disease course was quantified by assessment of the swelling of the arthritic knee joint on 25th day. HMGB1 levels (pg/ml) in the synovial lavage fluids of the arthritic joint on 25th day was measured using ELISA (SEA3999Mu, Cloud-Clone corp.). […]

L-tyrosyl-D-alanyl-L-glycyl-L-phenylala nyl-L-leucyl-L-arginyl-L-arginine amide acetate (Y[dA]GFLRR-NH2; also: acetate salt) [heptapeptide amide of formula (I), Z = NH2]
HMGB1 in BALF, % of control (HMGB1 [1]; 100 μg/kg by inhalation): 31.8 ± 12.4 %
HMGB1 in BALF, % of control (HMGB1 [1]; 250 μg/kg by inhalation): 34.2 ± 8.0 %
Arthritis incidence (HMGB1 [2]; 100 μg/kg i.p. once-a-day for two weeks (n=5)): 20%
HMGB1 in serum, % of control (HMGB1 [2]; 100 μg/kg i.p. once-a-day for two weeks, day 35, mean±SEM (n=5)): 21.5 ± 5.9 %
HMGB1 in synovial lavage fluid of the arthritic joint (HMGB1 [3]): 119 ± 38 pg/mL
Knee joint circumference (HMGB1 [3]): 1.32 ± 0.04 cm

H-Tyr-D-Ala-Gly-Phe-Leu-Arg-Arg-N(CH3)2 acetate (H-Y[dA]GFLRR-NMe2; also: acetate salt) [heptapeptide dimethylamide of formula (I)]
HMGB1 in BALF, % of control (HMGB1 [1]; 100 μg/kg by inhalation): 42.3 ± 5.9 %

H-Tyr-D-Ala-Gly-Phe-Leu-Arg-Arg-OH (H-Y[dA]GFLRR-OH; also: acetate salt) [modified [D-Ala^2]-dynorphin (1-7) described by Chavkin C et al. 1981; structurally similar comparison peptide, reference compound]
HMGB1 in BALF, % of control (HMGB1 [1]; 10 μg/kg by inhalation): 88.67 ± 10.5%

H-Tyr-D-Ala-Gly-Phe-Leu-Arg-Arg-NHC2H5 acetate (H-Y[dA]GFLRR-NHEt; also: acetate salt) [heptapeptide ethylamide of formula (I)]
HMGB1 in BALF, % of control (HMGB1 [1]; 100 μg/kg by inhalation): 35.2 ± 7.2 %

H-Tyr-D-Ala-Gly-Phe-Leu-Arg-Arg-NHC4H9 acetate (H-Y[dA]GFLRR-NHC4H9; also: acetate salt) [heptapeptide butylamide of formula (I)]
HMGB1 in BALF, % of control (HMGB1 [1]; 100 μg/kg by inhalation): 40.1 ± 5.0 %
